# Assay results taken from patent publication US20210355421A1, “DEVICES AND METHODS FOR PRODUCTION OF CELL AGGREGATES” (priority 2007, published 2021).
# “Also recorded” adds a separate entry of the source.
# Key:
# hESC [1] = experiment: forced aggregation of hESC with or without ROCK inhibitor Y-27632; format: cell-based, human
# Procedure: • 1. […] The precise degree of pre-differentiation that is optimal will vary with the cell line in question, exact maintenance techniques, etc. If EB coherence is still insufficient after treatment as above, pre-differentiation can be started earlier (i.e the duration increased) or (if using BMPs), BMP concentration can be increased. […] Prepare low-adsorbance well plates: • a) dispense 40 μL (for 96-well plates) or 25 μL (for 384-well plates) of 5% Pluronic acid in PBS into the plates • b) incubate 30 minutes at room temperature • c) remove pluronic acid solution by pipetting or by inverted centrifugation in the device described and illustrated in FIG. 1 or 2 for 1 minute at 240×g • 3. Prepare a single-cell suspension by treating the hESC culture with TrypIE for 5 minutes, and washing the cells off with X-Vivo10 • 4. Count cells, spin down and re-suspend to 1 million cells/mL in X-Vivo or other medium of interest. Cells may all derive from a single culture, or cells from different sources may be combined. • 5. […] In the absence of both, no aggregates were formed (N.D.—size not determined). […]
# hESC [2] = experiment: aggregate formation from hESC cultured on Matrigel after BMP pre-differentiation; format: cell-based, human; settings: 50 ng/mL BMP4 pre-differentiation, control population did not form aggregates
# Procedure: The precise degree of pre-differentiation that is optimal will vary with the cell line in question, exact maintenance techniques, etc. […] Prepare low-adsorbance well plates: • a) dispense 40 μL (for 96-well plates) or 25 μL (for 384-well plates) of 5% Pluronic acid in PBS into the plates • b) incubate 30 minutes at room temperature • c) remove pluronic acid solution by pipetting or by inverted centrifugation in the device described and illustrated in FIG. 1 or 2 for 1 minute at 240×g • 3. Prepare a single-cell suspension by treating the hESC culture with TrypIE for 5 minutes, and washing the cells off with X-Vivo10 • 4. Count cells, spin down and re-suspend to 1 million cells/mL in X-Vivo or other medium of interest. Cells may all derive from a single culture, or cells from different sources may be combined. • 5. […]
Compound,"aggregate size and symmetry (hESC [1]; 10 μM Y-27632, hESC cultured on Matrigel, 2,000 cells per well, without or with 48 hours pre-differentiation in serum-containing medium)","SISO-aggregate formation / aggregate stability (hESC [1]; 10 μM Y-27632 added to cell suspension immediately prior to dispensing, hESC on Matrigel in MEF-conditioned medium, without or with pre-differentiation)",stable aggregate formation after BMP4 pre-differentiation (hESC [2])
C[C@@H](N)[C@H]1CC[C@H](C(=O)Nc2ccncc2)CC1 [Y-27632],substantially increased aggregate size and symmetry; also recorded: size and symmetry of aggregates are improved,sizeable aggregates resulted,
BMP4: bone morphogenetic protein used as growth factor for pre-differentiation,,,Aggregates formed from the pre-differentiated population
